We go through 90 compounds from a melting point compilation (Tetko et al.; mined from patent text by program, amines drawn as free bases though some values may be those of a salt).

The structures appear in SMILES notation. Where only a bound is given, the exact number is not on record here.

For `Cc1ccc(C=NNC(=O)c2ccc(O)cc2)s1`, the melting point worked out at 216 °C.
On to `FC(F)(F)c1cc(-c2ccc(Cl)c(Cl)c2)nc2c(-c3cccnc3)cnn12`, for which the melting point was 224 °C.
`CCCC1OC(C(=O)OC)CC2=C1C(=O)c1ccccc1C2=O` (stereo not given): the melting point lay within 112 to 114 °C.
As for `C#Cc1cccc(Nc2ncnc3cc(OCCOC)c(OCCOC(C)=O)cc23)c1`, the melting point lay in the range of 84 to 87 °C.
For the compound `CCOC(=O)c1nc(-c2nccs2)cs1`, the melting point lay in the range of 143 to 145 °C.
For `CC(C)(Cl)C(CCN1C(=O)c2ccccc2C1=O)N=O` (stereo not given), the melting point is 140 to 141 °C.
`O=C(O)c1c(Br)c(Br)cc2c1OCCO2` showed a melting point of 212 °C.
The same measure for `CCCCCCCCCCC(O)CNCCCCCCNCC(O)CCCCCCCCCC` (stereo not given): 124 to 128 °C; for `CN(Cc1ccc(C2=NCCN2C(=O)OC(C)(C)C)cc1)C(=O)OCc1ccccc1`: 124 °C; for `COc1ccc2nc(CSc3cc(C)ccn3)[nH]c2c1`: 138 to 140 °C.
Under `CC(=O)Nc1cccc2c1C(=O)OC2=O` stands 180 to 183 °C; under `CCS(=O)(=O)c1cc2c(cc1OC)CCn1c3c(c(-c4cncs4)c1-2)CCCCN(C(C)(C)C)C3=O`, 258 to 260 °C; under `CCOC(Cc1ccc(OCCn2c(=O)sc3cc(C(=O)c4ccccc4)ccc32)cc1)C(=O)OC` (stereo not given), 118 to 119 °C.
The same measure for `COC(=O)c1ccnc(Nc2ccc(SC)cc2)c1`: 142 °C; for `CCCCCCCCCC#CCCCCCCCCCCCO`: 38 to 39 °C.
The compound `O=C(NOCCO)c1ccc(F)c(F)c1Nc1ccccc1F` registered a melting point of 130 °C.
The same measure for `COc1cc(OP(=O)(OC)OC)c(C(=O)c2ccccc2)s1`: 76 °C.
Take `Oc1cc2cc(C3CCCC3)sc2c(Cl)c1Cl`: the melting point was 62 to 63.5 °C.
Under `Cc1cc(C)cc(Nn2c(-c3ccccc3)c(C)[nH]c2=S)c1` stands 240 to 242 °C; under `CCn1cc(Br)nc(N)c1=O`, 227 to 230 °C; under `Cc1nc2cc3c(cc2c(=O)n1COC(=O)C(C)(C)C)CCC3`, 128 °C.
In the case of `COC(=O)C=C(C)NCc1ccccc1`, the melting point was 36 to 37.5 °C.
Take `CN(C)CCOc1ccc2c(c1)Cc1cc(OCCN(C)C)ccc1O2`: the melting point is 85 to 86.5 °C.
For the compound `CCOC(=O)c1[nH]c2cc(C(F)(F)F)ccc2c1N`, the melting point was 204 to 210 °C.
For `CC1CCCCC1C(=O)Nc1ccc(-c2ncc(-c3ccc(NC(=O)c4cccnc4)cc3)[nH]2)cc1` (stereo not given), the melting point lay in the range of 245 to 247 °C.
Under `CC(C)(C)OC(=O)NC(CC1=CC(=O)NC1=O)C(=O)OC(C)(C)C` (stereo not given) stands 104 to 105 °C; under `N#Cc1c(-c2ccc(Cl)c(Cl)c2)[nH]c(I)c1I`, greater than 230 °C.
`Cc1ccc(F)cc1C(=O)Nc1ccc(C(=O)N2Cc3cccn3-c3ccccc32)cn1` registered a melting point of 190 to 196 °C.
For the compound `COC(=O)CCC(C)C1CCC2C3CCC4CCCCC4(C)C3CCC12C` (stereo not given), the melting point amounted to 87 °C.
Under `O=S1(=O)N2CN3CN1CP(C3)C2` stands 274 to 275 °C; under `Cc1c(C)c2c(c(C)c1NC(=O)OC(C)(C)C)C(c1ccc(C(C)C)cc1)CO2` (stereo not given), 121 to 122 °C; under `NS(=O)(=O)c1cc2cc(C=O)sc2o1`, 165 to 167 °C.
Under `COC(=O)c1ccc(CC(C)NCC(O)c2ccc(O)c(CO)c2)cc1C(=O)OC` (stereo not given) stands 124 to 129 °C; under `COc1ccc([C@@H]2c3ccccc3C[C@@H]3CC(=O)N(C)CCN32)cc1` (racemic), 170 to 172 °C; under `CC(C)CSc1ccc(-c2nc(=O)c3ccccc3s2)cn1`, 92.8 to 93.1 °C.
Under `C/C(=C\C(N)=O)c1ccc2c(c1)C(C)(C)OC(=O)N2` stands 198 to 200 °C.
As for `O=S(=O)(c1ccc2ccccc2c1)N1CCOc2ccc(CCCI)cc21`, the melting point fell in the range of 87 to 88 °C.
Under `Cc1ncccc1NC(=NC#N)NC(NC(=O)Cc1ccc(F)c(F)c1)C(C)(C)C` (stereo not given) stands 58 to 60 °C; under `COc1cccc(C2NC(=O)N(C(C)C)c3cc(C)ccc32)c1` (stereo not given), 167 to 169 °C.
The same measure for `CC1(C)CCC(C)(C)C2=C1CC(Cl)C(C)(O)C2` (stereo not given): 122 to 124 °C.
Regarding `CC(C)(O)c1ccc(CNC(=O)c2cccnc2Oc2ccc3ncoc3c2)cc1`, the melting point is 92 to 94 °C.
Under `CN(C)C(=O)C1Oc2ccc([N+](=O)[O-])cc2O1` (stereo not given) stands 109 °C.
The same measure for `CCCCC(CC)COc1ccc2c(c1)C(=O)c1ccc(OCC(CC)CCCC)cc1C2=O` (stereo not given): 49 to 51 °C; for `Nc1cccc(-c2ccc(CCN3CCN(C(=O)Cc4ccc(F)cc4)CC3)cc2)n1`: 143 to 145 °C.
As for `COc1cc2ncnc(N3CCc4ccc(Cl)cc43)c2cc1SC`, the melting point stood at 210 °C.
The same measure for `CS(=O)(=O)c1ccc(-c2cnn(-c3ccccc3F)c(=O)c2-c2ccc(F)cc2)cc1`: 96 to 103 °C; for `CCN(CC)C(=O)NCCOC(=O)c1cc(Oc2ccc(C(F)(F)F)cc2Cl)ccc1[N+](=O)[O-]`: 89 to 90 °C; for `CCOC(=O)C(CBr)=NOC(=O)c1ccc(Cl)cc1`: 82 to 84.5 °C.
The same measure for `Fc1ccc(Nc2ncnc3ccc(-n4cncn4)cc23)c(F)c1`: greater than 250 °C.
In turn, `CC(C)NCCNC(=O)c1ccc(OCc2ccc(-c3ccccc3)cc2)cc1` gave a melting point of 150 to 154 °C.
In the case of `C1=C(c2ccccc2)CCN(Cc2cncc(-c3ccccc3)c2)C1`, the melting point was in the range of 80 to 82 °C.
Under `N#CCSc1ncc2ccccn12` stands 120 to 122 °C; under `CSc1ccc(C(=O)C(C#N)C(=O)C(C)(C)C)c(Cl)c1` (stereo not given), 97 to 99 °C.
Under `CCCCCCCN(C(=O)Nc1ccccc1CCc1cc(C(C)(C)C)c(O)c(C(C)(C)C)c1)C1CCCCCC1` stands 70 to 72 °C.
In turn, `COc1ccccc1N1CC(=O)Nc2c(C(N)=O)nc(-c3cccc(O)c3)nc21` displayed a melting point of 336 to 338 °C.
Turning to `Cn1c(C(F)(F)F)cc(=O)n(-c2cc(OCc3ccccc3Cl)c(Cl)cc2F)c1=O`, the melting point was in the range of 126 to 129 °C.
In turn, `CCOC(=O)c1c(O)c2sccc2[nH]c1=O` displayed a melting point of 218 °C.
The same measure for `N=C(NCCCOc1cccc2[nH]c3ccccc3c12)c1cccs1`: 189 to 190 °C; for `COc1ccc2c(c1)c(C1CCN(CCOc3ccccc3C(=O)O)CC1)cn2Cc1ccoc1`: 153 to 154 °C; for `O=C(O)c1cccc(Oc2ccc(Br)cc2)c1`: 171 to 173 °C.
The compound `CC(C)NCCn1c(-c2ccc(O)cc2)cc2c1CCCC2` showed a melting point of 149 to 150 °C.
As for `CC1(C)C=C(c2ccccn2)c2cc(C#N)ccc2OC1`, the melting point lay in the range of 155 to 157 °C.
The same measure for `CN1CC(c2cc3ccccc3o2)CC1=O` (stereo not given): 73 °C.
Consider `CC(CC1c2ccccc2CCN1C)NCC(O)c1ccc(O)cc1` (stereo not given), for which the melting point lay in the range of 113 to 115 °C.
Under `O=C(NCCN1C=CC(c2ccccc2)=CC1)c1ccccc1S(=O)(=O)O` stands 272 to 274 °C; under `COc1cccc(NC(=O)NCc2cccc3c2CN(C2CCC(=O)NC2=O)C3=O)c1` (stereo not given), 340 to 342 °C; under `O=C1N(CCCCN2CCN(c3n[nH]c4cc(F)ccc34)CC2)CSC12CCCC2`, 132 to 134 °C.
On to `Cc1ccc(S(N)(=O)=O)cn1`, for which the melting point fell in the range of 151 to 155 °C.
The same measure for `CC1(C)CCC(C)(C)c2cc(C#Cc3ccc(CO)cc3)ccc21`: 115 to 117 °C; for `O=C(Nc1ccc(N2CCOCC2=O)cc1)[C@H]1C[C@@H](O)CN1C(=O)Cc1ccc(Cl)cc1`: 141 °C; for `CC(C)(C)c1cc(CCc2ccccc2NC(=O)N2CCCCC2CCOCc2ccccc2)cc(C(C)(C)C)c1O` (stereo not given): 113 to 114 °C.
The same measure for `CCN(CC)c1ccc(C=C2CC(C)CC(=Cc3ccc(N(CC)CC)cc3)C2=O)cc1` (stereo not given): 169 °C.
The same measure for `CCNC(=O)c1cc(N=C=S)ccc1[Si](C)(C)C`: 106 to 108 °C; for `CN1CCN(c2ccc(NC(=O)c3cc4ccccc4s3)cc2C#N)CC1`: 263 to 264 °C; for `CCOc1ccc(S(=O)(=O)N(Cc2ccc(C(=O)OC)cc2)[C@@H](CC)c2ccccc2)cc1`: 102 to 104 °C.
For the compound `CCn1cc(C(=O)O)c(=O)cc1-c1cc(OC)c(OC)c(OC)c1`, the melting point lay in the range of 200 to 201 °C.
Under `CCNc1ccc(N2CCOC2=O)cc1[N+](=O)[O-]` stands 140 °C; under `CNc1ccc(CO)cc1[N+](=O)[O-]`, 126 to 127 °C; under `Cc1nc(N)nc(N)c1-c1cccc2ccccc12`, 224 to 225 °C.
Under `CN1CCC(C2Nc3cc(Br)ccc3N3CCc4cccc2c43)CC1` (stereo not given) stands 206 to 208 °C; under `CC(CCCC(F)(C(F)(F)F)C(F)(F)F)C1CC(=O)C2=C3CCC4CC(O)CCC4(C)C3CCC21C` (stereo not given), 177 to 179 °C.
The same measure for `CCOC(=O)CN(c1ccc(Cl)cc1)[C@H]1c2cc(C#N)ccc2OC(C)(C)[C@@H]1O`: 172 °C; for `Cc1ccc(OCC(=O)c2cc(C(C)C)c(O)c(C(C)C)c2)cc1`: 124 to 125 °C; for `OCc1cc2ccccc2c(-c2ccnc(Br)c2)c1CO`: 108 to 109 °C.
`CCOC(=O)CNc1ncccc1NC(=O)c1ccc(F)cc1`: the melting point lay within 127 to 128 °C.
The same measure for `O=[N+]([O-])c1cccc(Nc2nccc(-c3cccnc3)n2)c1`: 212 to 213 °C.
Compound `CC(C)Cc1c(C(=O)OC(C)(C)C)c(C(F)F)nc(C(F)(F)F)c1C(=O)OC(C)(C)C` registered a melting point of 48 to 50 °C.
The same measure for `CCCn1c(=O)c2[nH]c(C(C)Cc3ccncc3)nc2n(CCC)c1=O` (stereo not given): 215 to 217 °C.
In turn, `Cc1cn(C2CC(N=[N+]=[N-])C(C(O)S(C)(=O)=O)O2)c(=O)n(C(=O)c2ccccc2)c1=O` (stereo not given) returned a melting point of 86 to 88 °C.
The same measure for `O=S(=O)(Nc1cnc(-n2ccnc2)nc1NCc1ccc(Br)cc1)c1ccc(Cl)cc1`: 183 to 185 °C.

Usually melting point stands for the temperature of the solid-liquid transition.
